Laboratory results from US20250298028A1, “METHOD FOR SCREENING DRUGS FOR TREATING MULTIPLE-VARIANT CORONAVIRUS DISEASE” (KOREA UNIVERSITY RESEARCH AND BUSINESS FOUNDATION, priority 2022, published 2025).
pIC50: −log10 of the molar value.

Columns and labels:
[1] = target: T1, main protease (M^pro) of SARS-COV-2 (Severe acute respiratory syndrome coronavirus 2, UniProt P0DTD1); assay: TEM observation of the reaction of MCAP-AuNP with M^pro after M^pro inhibitor treatment; assay type: biochemical; conditions: TEM images, FIG. 10B-10D
[2] = target: T1, main protease (M^pro) of SARS-COV-2; assay: biochemical

**Q.** Which “activity of M^pro after M^pro inhibitor treatment (effect on MCAP-AuNP, TEM image)” value [1] does the source give for `COc1ccc([C@@H]2CC(=O)c3c(O)cc(O)cc3O2)cc1O` [hesperetin] here?
**A.** inhibited

**Q.** What about the pIC50 [2] of the same compound?
**A.** 4.37

**Q.** For `CC(=O)N[C@@H](CC(C)C)C(=O)N[C@@H](CC(C)C)C(=O)N[C@H](C=O)CCCNC(=N)N` [leupeptin], which “activity of M^pro after M^pro inhibitor treatment (effect on MCAP-AuNP, TEM image)” value [1] is on record?
**A.** inhibited

**Q.** And the pIC50 [2]?
**A.** 4.54

**Q.** With `Cc1cccc(C)c1OCC(=O)N[C@@H](Cc1ccccc1)[C@@H](O)C[C@H](Cc1ccccc1)NC(=O)[C@H](C(C)C)N1CCCNC1=O` [lopinavir] as the compound, how does the “activity of M^pro after M^pro inhibitor treatment (effect on MCAP-AuNP, TEM image)” value [1] read?
**A.** inhibited

**Q.** And the pIC50 [2]?
**A.** 4.97
